biological target: unphosphorylated-BTK kinase domain (UP-BTK), GST-tagged human BTK (389-659aa) (Homo sapiens (Human), UniProt Q06187); test: BTK Kinase Lanthascreen Binding Assay; details: Lanthascreen binding, 60 minutes incubation; pIC50 = negative log of the IC50 in molar
Description: BTK Kinase Lanthascreen Binding Assay:
A BTK kinase lanthascreen binding assay monitors compound binding to unphosphorylated-BTK kinase domain (UP-BTK), by competing with a fluorescent labeled tracer. […] Data were analyzed using Xlfit™ version 5.3 from ID Business Solutions (Guildford), Microsoft Excel add-in. pIC50 refers to the negative log of the IC50 in molar.

unphosphorylated-BTK kinase domain (UP-BTK), GST-tagged human BTK (389-659aa), sequence (Q06187 389-659): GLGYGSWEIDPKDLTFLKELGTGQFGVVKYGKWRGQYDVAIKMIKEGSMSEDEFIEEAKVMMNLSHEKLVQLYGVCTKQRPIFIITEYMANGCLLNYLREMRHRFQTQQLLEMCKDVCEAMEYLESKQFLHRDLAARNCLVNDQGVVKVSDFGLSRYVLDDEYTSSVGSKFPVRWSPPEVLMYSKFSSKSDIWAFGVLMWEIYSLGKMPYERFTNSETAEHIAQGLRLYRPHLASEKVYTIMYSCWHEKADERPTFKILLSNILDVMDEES

Structure (SMILES) | BTK_I_binding pIC50
CC(=O)NC1CCC[C@@H](NC(=O)c2sc3nccc4c3c2NC(=O)N4c2cnc(Oc3ccccc3)cc2C)C1 (single isomer, unassigned) [Example 422, N-((1R,3R)-3-Acetamidocyclohexyl)-5-(*S)-(4-methyl-6-phenoxypyridin-3-yl)-4-oxo-4,5-dihydro-3H-1-thia-3,5,8-triazaacenaphthylene-2-carboxamide] | 7.72
CCC(=O)NC1CCC[C@@H](NC(=O)c2sc3nccc4c3c2NC(=O)N4c2cnc(Oc3ccccc3)cc2C)C1 (single isomer, unassigned) [Example 423, 5-(*S)-(4-Methyl-6-phenoxypyridin-3-yl)-4-oxo-N-((1R,3R)-3-propionamidocyclohexyl)-4,5-dihydro-3H-1-thia-3,5,8-triazaacenaphthylene-2-carboxamide] | 7.75
C=CC(=O)N[C@H]1CCC[C@H]1NC(=O)c1sc2nccc3c2c1NC(=O)N3c1ccc(Oc2cccnn2)cc1C (single isomer, unassigned) [Example 424, N-((1R,2S)-2-Acrylamidocyclopentyl)-5-(*S)-(2-methyl-4-(pyridazin-3-yloxy)phenyl)-4-oxo-4,5-dihydro-3H-1-thia-3,5,8-triazaacenaphthylene-2-carboxamide] | 7.76
C=CC(=O)N[C@H]1CCC[C@H]1NC(=O)c1sc2nccc3c2c1NC(=O)N3c1ccc(Oc2cccnn2)cc1C (single isomer, unassigned) [Example 425, N-((1R,2S)-2-Acrylamidocyclopentyl)-5-(*R)-(2-methyl-4-(pyridazin-3-yloxy)phenyl)-4-oxo-4,5-dihydro-3H-1-thia-3,5,8-triazaacenaphthylene-2-carboxamide] | 6.67
C=CC(=O)N[C@H]1CCC[C@H]1NC(=O)c1sc2nccc3c2c1NC(=O)N3c1cnc(OC(C)C)cc1C (single isomer, unassigned) [Example 426, N-((1R,2S)-2-Acrylamidocyclopentyl)-5-(*S)-(6-isopropoxy-4-methylpyridin-3-yl)-4-oxo-4,5-dihydro-3H-1-thia-3,5,8-triazaacenaphthylene-2-carboxamide] | 8.20
C=CC(=O)N[C@H]1CC[C@@H](NC(=O)c2sc3nccc4c3c2NC(=O)N4c2cnc(OC(C)C)cc2C)C1 (single isomer, unassigned) [Example 427, N-((1R,3S)-3-Acrylamidocyclopentyl)-5-(*S)-(6-isopropoxy-4-methylpyridin-3-yl)-4-oxo-4,5-dihydro-3H-1-thia-3,5,8-triazaacenaphthylene-2-carboxamide] | 7.88
Cc1cc(OC(C)C)ncc1N1C(=O)Nc2c(C(=O)N[C@@H]3CCC[C@@H]3N)sc3nccc1c23 (single isomer, unassigned) [Example 428, N-((1R,2S)-2-Aminocyclopentyl)-5-(*S)-(6-isopropoxy-4-methylpyridin-3-yl)-4-oxo-4,5-dihydro-3H-1-thia-3,5,8-triazaacenaphthylene-2-carboxamide] | 6.67
C=CC(=O)N[C@@H]1CC[C@H](NC(=O)c2sc3nccc4c3c2NC(=O)N4c2cnc(Oc3ccccc3)cc2C)C1 (single isomer, unassigned) [Example 430, N-((1S,3R)-3-Acrylamidocyclopentyl)-5-(*S)-(4-methyl-6-phenoxypyridin-3-yl)-4-oxo-4,5-dihydro-3H-1-thia-3,5,8-triazaacenaphthylene-2-carboxamide] | 8.17
Cc1cc(Oc2ccccc2)ncc1N1C(=O)Nc2c(C(=O)N[C@H]3CC[C@@H](N)C3)sc3nccc1c23 (single isomer, unassigned) [Example 431, N-((1S,3R)-3-Aminocyclopentyl)-5-(*S)-(4-methyl-6-phenoxypyridin-3-yl)-4-oxo-4,5-dihydro-3H-1-thia-3,5,8-triazaacenaphthylene-2-carboxamide] | 6.68
C=CC(=O)N[C@@H]1CCCC[C@H]1NC(=O)c1sc2nccc3c2c1NC(=O)N3c1ccc(Oc2ccccc2)cc1C (single isomer, unassigned) [Example 439, N-((1R,2R)-2-Acrylamidocyclohexyl)-5-(*S)-(2-methyl-4-phenoxyphenyl)-4-oxo-4,5-dihydro-3H-1-thia-3,5,8-triazaacenaphthylene-2-carboxamide] | 7.53
Cc1cc(Oc2ccccc2)ccc1N1C(=O)Nc2c(C(=O)N[C@@H]3CCCC[C@H]3N)sc3nccc1c23 (single isomer, unassigned) [Example 440, N-((1R,2R)-2-aminocyclohexyl)-5-(*S)-(2-methyl-4-phenoxyphenyl)-4-oxo-4,5-dihydro-3H-1-thia-3,5,8-triazaacenaphthylene-2-carboxamide] | 7.07

Results, then the compound that gave them:

BTK_I_binding pIC50 | Structure (SMILES)
7.01 | Cc1cc(Oc2ccccc2)ccc1N1C(=O)Nc2c(C(=O)N[C@@H]3CCCC[C@H]3NC(=O)CN)sc3nccc1c23 (single isomer, unassigned) [Example 441, N-((1R,2R)-2-(2-Aminoacetamido)cyclohexyl)-5-(*S)-(2-methyl-4-phenoxyphenyl)-4-oxo-4,5-dihydro-3H-1-thia-3,5,8-triazaacenaphthylene-2-carboxamide]
6.74 | CNCC(=O)N[C@@H]1CCCC[C@@H]1NC(=O)c1sc2nccc3c2c1NC(=O)N3c1ccc(Oc2ccccc2)cc1C (single isomer, unassigned) [Example 443, 5-(*S)-(2-Methyl-4-phenoxyphenyl)-N-((1S,2R)-2-(2-(methylamino)acetamido)cyclohexyl)-4-oxo-4,5-dihydro-3H-1-thia-3,5,8-triazaacenaphthylene-2-carboxamide]
6.73 | Cc1cc(Oc2ccccc2)ccc1N1C(=O)Nc2c(C(=O)N[C@H]3CCCC[C@H]3NC(=O)CN)sc3nccc1c23 (single isomer, unassigned) [Example 444, N-((1S,2R)-2-(2-Aminoacetamido)cyclohexyl)-5-(*S)-(2-methyl-4-phenoxyphenyl)-4-oxo-4,5-dihydro-3H-1-thia-3,5,8-triazaacenaphthylene-2-carboxamide]
6.73 | CC(=O)N[C@@H]1CCCC[C@H]1NC(=O)c1sc2nccc3c2c1NC(=O)N3c1ccc(Oc2ccccc2)cc1C (single isomer, unassigned) [Example 445, N-((1R,2R)-2-Acetamidocyclohexyl)-5-(*S)-(2-methyl-4-phenoxyphenyl)-4-oxo-4,5-dihydro-3H-1-thia-3,5,8-triazaacenaphthylene-2-carboxamide]
6.72 | CC(=O)N[C@@H]1CCCC[C@@H]1NC(=O)c1sc2nccc3c2c1NC(=O)N3c1ccc(Oc2ccccc2)cc1C (single isomer, unassigned) [Example 446, N-((1S,2R)-2-Acetamidocyclohexyl)-5-(*S)-(2-methyl-4-phenoxyphenyl)-4-oxo-4,5-dihydro-3H-1-thia-3,5,8-triazaacenaphthylene-2-carboxamide]
6.67 | Cc1cc(Oc2ccccc2)ccc1N1C(=O)Nc2c(C(=O)N[C@@H]3CCCC[C@H]3NC(=O)CN(C)C)sc3nccc1c23 (single isomer, unassigned) [Example 447, N-((1R,2R)-2-(2-(Dimethylamino)acetamido)cyclohexyl)-5-(*S)-(2-methyl-4-phenoxyphenyl)-4-oxo-4,5-dihydro-3H-1-thia-3,5,8-triazaacenaphthylene-2-carboxamide]
6.66 | CNCC(=O)N[C@@H]1CCCC[C@H]1NC(=O)c1sc2nccc3c2c1NC(=O)N3c1ccc(Oc2ccccc2)cc1C (single isomer, unassigned) [Example 448, 5-(*S)-(2-Methyl-4-phenoxyphenyl)-N-((1R,2R)-2-(2-(methylamino)acetamido)cyclohexyl)-4-oxo-4,5-dihydro-3H-1-thia-3,5,8-triazaacenaphthylene-2-carboxamide]
6.51 | Cc1cc(Oc2ccccc2)ccc1N1C(=O)Nc2c(C(=O)N[C@H]3CCCC[C@H]3NC(=O)CN(C)C)sc3nccc1c23 (single isomer, unassigned) [Example 449, N-((1S,2R)-2-(2-(Dimethylamino)acetamido)cyclohexyl)-5-(*S)-(2-methyl-4-phenoxyphenyl)-4-oxo-4,5-dihydro-3H-1-thia-3,5,8-triazaacenaphthylene-2-carboxamide]
6.47 | Cc1cc(Oc2ccccc2)ccc1N1C(=O)Nc2c(C(=O)N[C@H]3CCCC[C@H]3N)sc3nccc1c23 (single isomer, unassigned) [Example 450, N-((1S,2R)-2-Aminocyclohexyl)-5-(*S)-(2-methyl-4-phenoxyphenyl)-4-oxo-4,5-dihydro-3H-1-thia-3,5,8-triazaacenaphthylene-2-carboxamide]

same assay, conditions: read-out: BTK_I_binding pIC50 (converted)

IC50 [nM] | Structure (SMILES)
> 1000 | Cc1nc(Oc2ccccc2)ccc1N1C(=O)Nc2c(C(=O)N[C@H]3CC[C@H](N)C3)sc3nccc1c23 (single isomer, unassigned) [Example 415, N-((1S,3S)-3-Aminocyclopentyl)-5-(*S)-(2-methyl-6-phenoxypyridin-3-yl)-4-oxo-4,5-dihydro-3H-1-thia-3,5,8-triazaacenaphthylene-2-carboxamide]
> 1000 | CCC(=O)N[C@H]1CCC[C@H](NC(=O)c2sc3nccc4c3c2NC(=O)N4c2cnc(Oc3ccccc3)cc2C)C1 (single isomer, unassigned) [Example 416, 5-(*S)-(4-Methyl-6-phenoxypyridin-3-yl)-4-oxo-N-((1S,3R)-3-propionamidocyclohexyl)-4,5-dihydro-3H-1-thia-3,5,8-triazaacenaphthylene-2-carboxamide]
> 1000 | Cc1cc(OC(C)C)ncc1N1C(=O)Nc2c(C(=O)N[C@@H]3CC[C@H](N)C3)sc3nccc1c23 (single isomer, unassigned) [Example 429, N-((1R,3S)-3-Aminocyclopentyl)-5-(*S)-(6-isopropoxy-4-methylpyridin-3-yl)-4-oxo-4,5-dihydro-3H-1-thia-3,5,8-triazaacenaphthylene-2-carboxamide]

Source: patent publication US10934310B2, “Inhibitors of Bruton's tyrosine kinase and method of their use” (JANSSEN PHARMACEUTICA NV, priority 2015, dated 2021)
